# Assay results published in article PMC4977052, “On the Utility of ToxCast™ and ToxPi as Methods for Identifying New Obesogens” (Environmental Health Perspectives, 2016).
# Several values for one entry are separate records, joined by “and”; a condition that tells them apart may be missing. Equal values may be shown once. Read-outs that look alike come from different tables or passages of the source.
# Experiments:
# SREBP = system: SREBP; parameters: method as in Knudsen et al. 2011; settings: ToxCast Phase I 2011 release; NA = not active; ref Knudsen et al. 2011; read-out: ATGC SREBP AC50; cited from earlier work
# 3T3-L1 preadipocytes = experiment: 3T3-L1 adipogenesis assay (lipid accumulation, adipogenic gene expression); assay type: cell-based; settings: 0.02-20 μM, 5 days after MDI induction
# Method: 3T3-L1 cells (ATCC) were maintained in high-glucose DMEM supplemented with 10% fetal bovine serum, 2 mM L-glutamine, 50 IU/mL penicillin, and 50 μg/mL streptomycin. A total of 2 × 10^4 cells per well were seeded in 12-well plates. After 48 hr, cells were exposed to the adipogenic cocktail MDI (500 μM isobutylmethylxanthine, 0.25 nM dexamethasone and 5 μg/mL insulin), 8 μg/mL biotin and 8 μg/mL pantothenate for 2 days. Induction media was removed and cells were exposed to test chemicals during 5 days, replacing the media every 2 days. Rosiglitazone (ROSI) and tributyltin (TBT) were used as positive controls at 100 nM and 50 nM final concentrations, respectively. All ToxCast™ chemicals were tested at 0.02, 0.2, 2, and 20 μM, and DMSO concentration was maintained at 0.1% across all treatments. If the chemical was toxic at 20 μM, we repeated the experiment at 10 μM.
# Cells were either fixed in 3.7% formaldehyde in phosphate-buffered saline (PBS) for 30 min at room temperature (RT) for lipid quantitation, or homogenized in TriPure (Roche, Mannheim, Germany) for gene expression analysis. For lipid quantitation, fixed cells were washed twice with PBS and maintained in PBS overnight at 4°C to release residual phenol red. Background of cells were measured prior to staining. Cells were stained with 1 μg/mL Nile red (CAS No. 7385-67-3) (to detect lipid accumulation) and 1 μg/mL Hoechst 33342 (ThermoFisher Scientific) (to detect nuclei as a surrogate for cell number) in PBS for 15 min in the dark at RT and washed twice with PBS. […] Background values of Hoechst and Nile red were subtracted from the RFUs after staining and the ratio RFUNile Red:RFUHoechst was calculated. Data are represented as mean ± SEM. Total RNA was isolated using TriPure (Roche) as recommended by the manufacturer. Reverse transcription and quantitative real-time RT-PCR (QPCR) were performed using Transcriptor RT and SYBR® Green Master Mix (Roche). cDNA was quantitated in a LightCycler® 480 System (Roche Diagnostics, Basel, Switzerland) using primer sets listed in Table S4. Each primer set amplified a single band as determined by gel electrophoresis and melting curve analysis. QPCR data were analyzed using the 2^ΔΔCt method ([Livak and Schmittgen 2001]) relative to ribosomal protein 36b4, normalizing to 0.1% DMSO vehicle. Error bars represent the SEM from four to six biological replicates calculated using standard propagation of error ([Bevington and Robinson 2003]).
# PPRE = system: PPRE; parameters: method as in Knudsen et al. 2011; settings: ToxCast Phase I 2011 release; NA = not active; ref Knudsen et al. 2011; read-out: ATGC PPRE AC50; cited from earlier work
# C/EBP = system: C/EBP; parameters: method as in Knudsen et al. 2011; settings: ToxCast Phase I 2011 release; NA = not active; ref Knudsen et al. 2011; read-out: ATGC CEBP AC50; cited from earlier work
# LXRβ [1] = system: LXRβ; parameters: method as in Knudsen et al. 2011; settings: ToxCast Phase I 2011 release; NA = not active; ref Knudsen et al. 2011; read-out: NCGC LXR AC50; cited from earlier work
# GAL4-mPPARγ [2] = target: T1, GAL4-mPPARγ (Mus musculus, UniProt P37238); experiment: GAL4-mPPARγ activation, transient transfection luciferase reporter in COS7 cells; assay type: cell-based
# T1 construct: expressed in transfected cells; host or cells: COS7
# PPARγ [3] = settings: NA = not active, cited from earlier work
# LXRα = system: LXRα; parameters: method as in Knudsen et al. 2011; settings: ToxCast Phase I 2011 release; NA = not active; ref Knudsen et al. 2011; read-out: ATGT LXRα AC50; cited from earlier work
# LXRβ [4] = system: LXRβ; parameters: method as in Knudsen et al. 2011; settings: ToxCast Phase I 2011 release; NA = not active; ref Knudsen et al. 2011; read-out: ATGT LXRβ AC50; cited from earlier work
# PPARγ [5] = system: PPARγ; parameters: method as in Filer et al. 2014; settings: ref Filer et al. 2014, cited from earlier work; for AC50: PPARγ, NA = not active, read-out: NCGC Antag. AC50, 2014 Release
# Human PPARγ = settings: PPARγ direct binding, NA = not active, cited from earlier work
# COS7 cells = experiment: Cytotoxicity in transfected COS7 cells measured as decreased β-galactosidase activity; settings: transfected COS7 cells, 24 hr
# Method: (§1) pCMX-Gal4, pCMX-Gal4-mPPARγ, and pCMX-Gal4-hRXRα were previously described ([Grün et al. 2006]). Transient transfections were performed in COS7 cells as described ([Chamorro-García et al. 2012]). Briefly, COS7 cells were seeded at 15,000 cells per well in 96-well tissue culture plates in 10% calf bovine serum. The following day, cells were transfected in Opti-MEM at ~ 90% confluency. One microgram of CMX-GAL4 effector plasmid was co-transfected with 5 μg tk-(MH100)4-luciferase reporter and 5 μg of CMX-β-galactosidase transfection control plasmids in Opti-MEM® using Lipofectamine® 2000 reagent (Invitrogen™ Life Technologies, Carlsbad, CA, USA), following the manufacturer’s recommended protocol. All chemicals were solvated in dimethyl sulfoxide (DMSO). After overnight incubation, the medium was replaced with Dulbecco’s Modified Eagle Medium (DMEM; HyClone, Logan, UT, USA), 10% resin charcoal stripped fetal bovine serum (FBS) plus ligands at concentrations indicated in the figure legends for an additional 24 hr. DMSO concentration was maintained at 0.05% across all chemical treatments. Cells were lysed and assayed for luciferase and β-galactosidase activity as previously described ([Forman et al. 1995]). All transfections were performed in triplicate and reproduced in multiple experiments. Data are reported as fold induction or reduction over vehicle ([…]) controls ± SEM (standard error of the mean) using standard propagation of error ([Bevington and Robinson 2003]). […] The EC50, EC10, IC50, and IC10 values from NCGC and ToxCast™ are reported from gain AC50 and AC10 values in the ToxCast™ 2014 release ([Filer et al. 2014]).
# (§2) Figure 1 ToxCast™ Chemical Activity on PPARγ. The ability of a graded dose series of ToxCast™ chemicals to (A) activate or (B) antagonize GAL4-mPPARγ was tested in transiently transfected COS7 cells. (A, B) Data points are averages of triplicate transfections (three biological replicates). […] Data are depicted as (A) fold induction or (B) reduction over vehicle (0.05% DMSO) controls ± SEM. (A) ToxCast™ chemicals were tested in 3-fold serial dilutions from 100 μM through 0.137 μM, with the final data point being 0.05% DMSO. Rosiglitazone serves as a positive control activator. (B) ToxCast™ chemicals were tested in 3-fold serial dilutions from 100 μM, in competition with 50 nM rosiglitazone (Rosi). […] (C) EC50, EC10, IC50, and IC10 values calculated from A and B are reported and compared to commercial assays (see Figure S1). Note: ATG, Attagene GAL-PPARγ activation assay; NCGC, GeneBLAzer® agonist (EC values) or antagonist (IC values) assays. Triphenyltin was previously published ([Kanayama et al. 2005]).
# GAL4-mPPARγ [6] = target: T1, GAL4-mPPARγ; experiment: GAL4-mPPARγ antagonism in competition with 50 nM rosiglitazone, transiently transfected COS7 cells; assay type: cell-based
# Method: as §1, §2
# RXRα = settings: ToxCast Phase I 2011 release; NA = not active; ref Knudsen et al. 2011; read-out: NCGC RXRα AC50; cited from earlier work
# [7] = Cos-7 transient transfection, PPARγ or RXRα activation assays (Table 2)
# [8] = ToxCast Phase I 2011 release, ref Knudsen et al. 2011, read-out: ATGT PPARγ AC50
# [9] = PPARγ, ref Filer et al. 2014, read-out: ATG Agonist AC50, 2014 Release
# [10] = PPARγ, ref Knudsen et al. 2011, read-out: ATG Agonist AC50, 2011 Release
# [11] = ref Filer et al. 2014, read-out: NVS Agonist AC50, 2014 Release
# T1 sequence (P37238 with tags, fused parts or gaps limits assumed): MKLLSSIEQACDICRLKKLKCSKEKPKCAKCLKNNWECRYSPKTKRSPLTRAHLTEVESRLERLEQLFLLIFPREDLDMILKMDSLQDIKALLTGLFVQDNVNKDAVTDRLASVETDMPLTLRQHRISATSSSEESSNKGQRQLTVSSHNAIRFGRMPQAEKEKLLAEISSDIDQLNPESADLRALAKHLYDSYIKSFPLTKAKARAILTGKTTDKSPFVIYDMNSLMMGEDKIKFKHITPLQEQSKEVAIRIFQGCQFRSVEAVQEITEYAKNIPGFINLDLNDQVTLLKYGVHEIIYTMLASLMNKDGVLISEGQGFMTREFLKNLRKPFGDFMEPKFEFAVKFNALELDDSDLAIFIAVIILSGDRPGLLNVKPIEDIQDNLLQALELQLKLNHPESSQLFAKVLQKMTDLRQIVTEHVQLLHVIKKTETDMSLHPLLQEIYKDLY
Structure (SMILES),AC50 (SREBP) [µM],Adipogenesis 3T3-L1 (result in words) (3T3-L1 preadipocytes),AC50 (PPRE) [µM],AC50 (C/EBP) [µM],AC50 (LXRβ [1]) [µM],"Activation COS7 (result in words), ToxPi chemicals (GAL4-mPPARγ [2]; [7])",AC50 (PPARγ [3]; [8]) [µM],AC50 (LXRβ [4]) [µM],AC50 (PPARγ [3]; [9]),AC50 (PPARγ [3]; [10]) [µM],AC50 (PPARγ [5]) [µM],also measured
"C=CCC1=C(C)C(OC(=O)C2C(C=C(C)C)C2(C)C)CC1=O (mixture of isomers) [d-cis,trans-Allethrin]",48,Negative,36,25,11.9,Inactive,36,–,–,–,–,–
"Cc1nn(C)c(Oc2ccccc2)c1C=NOCc1ccc(C(=O)OC(C)(C)C)cc1 [(Z,E)-Fenpyroximate]",–,Negative,0.065,–,6.9,Inactive,–,8.8,2.4 µM,8.6,35.9,"AC50 (LXRα): 4.3 µM; Activation COS7 (result in words), ToxCast PPARγ list (GAL4-mPPARγ [2]; Cos-7 transient transfection, PPARγ activation or antagonism assays (Table 1, Table S6)): Inactive"
CCc1cccc(CC)c1N(COC)C(=O)CCl [Alachlor],–,Negative,–,–,–,–,–,–,2 µM,3.7,3.2,"AC50 (Human PPARγ; [11]): 24.9 µM; AC50 (Human PPARγ; ref Knudsen et al. 2011, read-out: NVS Agonist AC50, 2011 Release): 43 µM; Concentration at which cytotoxicity (decreased β-galactosidase activity) was observed (COS7 cells): 100 µM; AC50 (GAL4-mPPARγ [6]; Activation AC50 (PPARγ antagonists), Cos-7 transient transfection, competition with 50 nM rosiglitazone): 4.48 µM; Antagonism of PPARγ (GAL4-mPPARγ [6]; COS7, competition against 50 nM rosiglitazone): weak antagonists; IC50 (GAL4-mPPARγ [6]; COS7, in competition with 50 nM rosiglitazone): 4.48 µM; PPARγ antagonists: IC10, Fig 1B (GAL4-mPPARγ [6]; COS7, in competition with 50 nM rosiglitazone, computed from IC50): 0.78 µM; Activation COS7 (result in words): PPARγ antagonist (GAL4-mPPARγ [6]; Cos-7 transient transfection, competition with 50 nM rosiglitazone): PPARγ antagonist; Activation of GAL4-PPARγ (text) (GAL4-mPPARγ [2]; COS7, 100 μM through 0.137 μM): did not activate PPARγ; PPARγ antagonists: IC10, NCGC (PPARγ [5]; AC10, ToxCast 2014 release): 0.15 µM; IC50 (PPARγ [5]; read-out: PPARγ antagonists: IC50, NCGC, gain AC50, ToxCast 2014 release): 3.19 µM"
Cc1ccc(-c2c(Cl)nc(C#N)n2S(=O)(=O)N(C)C)cc1 [Cyazofamid],–,Negative,12,8.7,–,–,–,13,10.1 µM and 9.4 µM,11,32.3,"AC50 (LXRα): 11 µM; AC50 (Human PPARγ; [11]): 9.6 µM; Activation COS7 (result in words), ToxCast PPARγ list (GAL4-mPPARγ [2]): Inactive; Activation COS7 (result in words), ToxPi chemicals (GAL4-mPPARγ [2]): Inactive"
C[Si](Cn1cncn1)(c1ccc(F)cc1)c1ccc(F)cc1 [Flusilazole],20,Positive,46,–,–,Inactive,51,–,–,–,–,–
O=C(Nc1ccccc1)Nc1ccnc(Cl)c1 [Forchlorfenuron],–,Positive,26,40,–,Inactive,46,37,–,–,–,–
C=CCOC(Cn1ccnc1)c1ccc(Cl)cc1Cl (centres unmarked) [Imazalil],–,Negative,–,–,–,Inactive,73,–,–,–,–,AC50 (RXRα): 3.2 µM
C#CCC1=C(C)C(OC(=O)C2C(C=C(C)C)C2(C)C)CC1=O (centres unmarked) [Prallethrin],33,Negative,8.4,29,16.7,–,44,–,–,–,–,"Activation COS7 (result in words), ToxPi chemicals (GAL4-mPPARγ [2]): Inactive"
